Data as given in patent US20140329854A1, “NOVEL HETEROCYCLIC COMPOUNDS USEFUL IN SIRTUIN BINDING AND MODULATION” (SMB Innovation, priority 2011, published 2014).
≈ marks a conversion by molar mass, not a printed value. Where two headings read alike, the source gives them in different places.

Columns and labels:
[1] = target: T1, SIRT1 (Homo sapiens, UniProt Q96EB6); assay: CISBIO HTRF SIRT1 assay of SIRT1 peptide deacetylation, modified by excluding NAD+; type: biochemical; conditions: for Modulation of SIRT1 deacetylating activity (in words): dose response, FIGS. 1-5
T1 construct: purchased Cisbio Bioassays
T1 sequence (Q96EB6 1-747): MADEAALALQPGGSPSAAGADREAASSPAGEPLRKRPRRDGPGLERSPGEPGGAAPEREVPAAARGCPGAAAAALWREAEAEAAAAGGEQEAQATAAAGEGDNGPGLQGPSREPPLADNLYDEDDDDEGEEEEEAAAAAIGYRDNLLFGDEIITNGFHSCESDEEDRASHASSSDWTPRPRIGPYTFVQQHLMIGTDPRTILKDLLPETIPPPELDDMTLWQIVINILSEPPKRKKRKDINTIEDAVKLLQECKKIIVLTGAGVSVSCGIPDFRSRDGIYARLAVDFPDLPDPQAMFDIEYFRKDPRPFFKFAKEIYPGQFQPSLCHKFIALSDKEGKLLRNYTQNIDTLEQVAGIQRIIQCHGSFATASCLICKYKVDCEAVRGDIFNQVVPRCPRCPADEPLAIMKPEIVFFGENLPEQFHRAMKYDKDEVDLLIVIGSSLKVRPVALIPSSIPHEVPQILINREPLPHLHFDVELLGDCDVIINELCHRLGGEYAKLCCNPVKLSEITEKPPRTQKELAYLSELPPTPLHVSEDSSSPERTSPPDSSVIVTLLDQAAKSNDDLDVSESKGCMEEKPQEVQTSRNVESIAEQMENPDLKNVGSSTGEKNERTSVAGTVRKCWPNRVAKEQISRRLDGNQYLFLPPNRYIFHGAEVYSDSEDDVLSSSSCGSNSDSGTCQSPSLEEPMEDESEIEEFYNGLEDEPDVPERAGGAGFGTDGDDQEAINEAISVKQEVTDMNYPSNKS
Experimental: Generally, the CISBIO HTRF® fluorescence enzyme titration assay (Cisbio Bioassays, Cisbio, 135 South Road, Bedford, Mass. 01730, USA) has provided information on inhibition and/or activation of SIRT1 deacetylation of a substrate peptide d2 containing a single acetylated lysine residue and a fluorescence probe/quencher. IC50 and AC50 values have been obtained. The assay was performed in microtiter wells and involved an enzymatic step, wherein 2 μL of the substrate peptide (6 nM) is incubated with 2 μL of SIRT1 enzyme (2.5 ng) and 2 μL of compound solution in DMSO and water. Reaction with anti-acetyl cryptate produces a FRET signal giving maximum signal when no SIRT1 reaction can be detected. The detection step involves quantification of the deacetylation process using an anti-acetyl MAb labeled with Eu^3+ cryptate. The assay was modified by excluding the NAD+ cofactor and using nicotinamide as inhibition control and the compound SRT1720 as activation control. SRT 1720 is described as a SIRT1 activating compound in Pillarisetti, S. (2008).
Protocol for inhibition/activation assay:
After adding all enzymatic step ingredients the mixture is incubated at room temperature at 30 to 60 min. Then the detection reactant is added and incubated at room temperature for 5 hours and on to produce a signal. The fluorescence readout is given as percentage of signal produced with no enzyme reaction.
The cryptate is excited at 337 nm and the fluorescence is measured at 590 nm (cryptate emission wavelength) and 665 nm (d2 emission wavelength). A ratio is calculated (665/590 nm) for each well.
The figures show percentage fluorescence as a function of Log C (log of compound concentration in μM).

[2] = Measured partition coefficients (MlogD7.4, logP11); type: physicochemical
Experimental: Physical properties tPSA and ClogP (calculated lipophilicity octanol/water) were calculated using ChemDraw. Additionally, M log D7.4 (measured partition coefficient at pH 7.4) and log P11 (measured partition coefficient at pH 11) were measured, and all data are shown in Table 7.

[3] = Kinetic aqueous solubility; type: physicochemical; conditions: phosphate buffer, pH 7.4, aqueous buffer, kinetic from dmso stock; read-out: Measured kinetic solubility
[4] = Metabolic stability in rat hepatocytes; type: in vitro ADME; conditions: rat hepatocytes, hepatic intrinsic clearance
Experimental: (§1) Stability of the six compounds in the presence of a drug metabolizing system such as human and rat hepatocytes was measured. Data were reported from the CRO in the format of hepatic intrinsic clearance (CLint) in mL/min/kg. These CLint data were converted using the well-stirred equation
(§2) to a whole body clearance (CLh, hepatic clearance), which is more directly physiologically interpreted (Qh, hepatic blood flow rate, mL/min/kg).

[5] = tested on: rat hepatocytes; assay: Metabolic stability in rat hepatocytes; type: in vitro ADME; conditions: for % Qh (rat): CLh as % of hepatic blood flow; for % Qh (rat) / rat CLh: rat Qh = 55 mL/min/kg; for rat CLh: hepatic clearance from CLint by well-stirred equation; for rat CLint: rat hepatocytes, hepatic intrinsic clearance
Experimental: as §1, §2

[6] = Metabolic stability in human hepatocytes; type: in vitro ADME; conditions: human hepatocytes, hepatic intrinsic clearance; read-out: hu CLint
Experimental: as §1, §2

[7] = tested on: human hepatocytes; assay: Metabolic stability in human hepatocytes; type: in vitro ADME; conditions: for % Qh (human): CLh as % of hepatic blood flow; for % Qh (human) / hu CLh: human Qh = 21 mL/min/kg; for hu CLh: hepatic clearance from CLint by well-stirred equation; for hu CLint: human hepatocytes, hepatic intrinsic clearance
Experimental: as §1, §2

[8] = tested on: human and rat hepatocytes; assay: Stability in cryopreserved hepatocytes (FIG. 7), verbal summary; type: in vitro ADME; conditions: 90 minutes
Experimental: as §1

[9] = tested on: MDCK-MDR1 cells
Excerpt: MDR1 is the nomenclature for the major efflux transporter P-glycoprotein (P-gp), which is expressed at important anatomical barriers such as blood-brain, small intestine, and tumor cells. The MDCK-MDR model is a polarized cell model over expressing P-gp (i.e. P-gp is expressed on the Apical, or gut lumen, side of the cell) that is capable of actively effluxing small molecule substrates in the B to A direction. […] The compounds were run bidirectionally (Compound added to apical side and flux measured of compound appearing on the basolateral, or blood, side; compound added on basolateral side and flux of compound to apical side measured).

[10] = Solubility in DMSO stock solution; conditions: solubility in DMSO before further dilution with water to 1% DMSO
[11] = tested on: CYP1A2, CYP2C9, CYP2C19, CYP2D6, CYP3A4; assay: CYP inhibition in human liver microsomes
[12] = tested on: CYP1A2, 2C9, 2C19, 2D6, and 3A4; conditions: microsomes
[13] = measured partition coefficient at pH 7.4
[14] = SIRT1 activation, no NAD+ cofactor, single experiment of FIGS. 1-4, read-out: AC50 in μM, n = 1

Row | SMILES | % Qh (rat) [5] [%] | rat CLh [5] [mL/min/kg] | % Qh (human) [7] [%] | hu CLh [7] [mL/min/kg] | Clearance in hepatocytes (in words) [8] | Stability in hepatocytes (in words) [8] | Cell permeability (in words) [9] | P-gp mediated efflux (in words) [9] | Concentration of compound in DMSO stock solution [10] [µM] | AC50 [1, 14] [µM] | Modulation of SIRT1 deacetylating activity (in words) [1] | MlogD7.4 [2, 13] | rat CLint [5] [mL/min/kg] | hu CLint [7] [mL/min/kg] | IC50 [12] [µM] | other results
1 | NC(=O)c1ccc(C(=O)Nc2ccc(O)cc2O)nc1 [Compound 3, 2-N(2,4-dihydroxyphenyl)pyridine-2,5-dicarboxamide] | 49.1 | 27.0 | 79.8 | 16.8 | relatively low clearance | good stability | moderate cell permeability | no P-gp mediated efflux | 20000 | – | – | – | – | – | – | AC50 ([1]; average AC50 values, n = 6, read-out: AC50): 10 µM; logD [2, 13]: 0.8; logP ([2]; measured partition coefficient at pH 11, read-out: MlogP11): 1; solubility kinetic [3]: 14 to 55 µg/mL (≈ 51.2 to 201 µM); CLint scaled [4]: 53 mL/min/kg; CLint scaled [6]: 83 mL/min/kg; IC50 [11]: > 5 µM
2 | NC(=O)c1ccc(C(=O)Nc2ccc(O)c3ccccc23)cn1 [Compound 11, 5-N(4-hydroxy-1-naphthyl)pyridine-2,5-dicarboxamide] | 70.7 | 38.9 | 60.4 | 12.7 | relatively low clearance | good stability | moderate cell permeability | no P-gp mediated efflux | 20000 | 3.3 | clear activation | 1.6 | 133 | 32 | > 5 | AC50 ([1]; SIRT1 activation, no NAD+ cofactor, average n = 3, read-out: AC50 in μM, average, n = 3): 114 µM
3 | NC(=O)c1ccc(C(=O)Nc2ccc(O)cc2O)cn1 [Compound 9, 5-N(2,4-dihydroxyphenyl)pyridine-2,5-dicarboxamide] | 21.4 | 11.8 | 36.4 | 7.6 | relatively low clearance | good stability | moderate cell permeability | no P-gp mediated efflux | 200000 | 112 | clear activation | 0.3 | 15 | 12 | > 5 | –
